Assay results published in ChEMBL document CHEMBL1125454, “Synthesis and evaluation of a new series of mechanism-based aromatase inhibitors” (J Med Chem, 1992).
Values joined by “and” are separate entries in the source; they are usually repeats but may differ in a detail not shown here. Equal entries are not always repeated.

Legend:
Aromatase [1] = target: T1, Aromatase (Homo sapiens, UniProt P11511); test: Inhibition of cytochrome P450 19A1
T1 sequence (P11511 whole entry): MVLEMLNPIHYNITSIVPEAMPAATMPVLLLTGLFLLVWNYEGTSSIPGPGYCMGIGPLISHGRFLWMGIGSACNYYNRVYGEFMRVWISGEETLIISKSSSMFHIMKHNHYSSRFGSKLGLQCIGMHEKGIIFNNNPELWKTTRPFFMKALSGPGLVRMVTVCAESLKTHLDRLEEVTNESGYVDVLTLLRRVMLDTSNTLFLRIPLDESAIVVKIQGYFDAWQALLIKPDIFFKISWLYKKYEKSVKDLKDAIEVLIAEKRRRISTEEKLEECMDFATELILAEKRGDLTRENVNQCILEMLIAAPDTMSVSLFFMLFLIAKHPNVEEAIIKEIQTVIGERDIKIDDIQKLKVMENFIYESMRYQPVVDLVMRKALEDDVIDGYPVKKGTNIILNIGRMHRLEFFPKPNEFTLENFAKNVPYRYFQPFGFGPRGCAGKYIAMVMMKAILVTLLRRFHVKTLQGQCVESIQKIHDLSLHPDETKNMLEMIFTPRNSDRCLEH

[2] = Half-life period of the compound; NTD = Not time dependent; assay type: ADME
[3] = kinact was determined; NTD = Not time dependent; assay type: ADME
Aromatase [4] = target: T1, Aromatase; test: Inhibition of Cytochrome P450 19A1
Aromatase [5] = target: T1, Aromatase; test: Inhibition constant for human placental Cytochrome P450 19A1
[6] = kinact was determined.; assay type: ADME
Aromatase [7] = target: T1, Aromatase; test: Percent cytochrome P450 19A1 activity remaining after 10 minute pretreatment with 1 uM androstenedione
Aromatase [8] = target: T1, Aromatase; test: Percent cytochrome P450 19A1 activity remaining after 5 minute pretreatment with 0.5 uM androstenedione
Aromatase [9] = target: T1, Aromatase; test: Percent cytochrome P450 19A1 activity remaining after 5 minute pretreatment with 1 uM androstenedione
Aromatase [10] = target: T1, Aromatase; test: Inhibition constant for human placental cytochrome P450 19A1
Aromatase [11] = target: T1, Aromatase; test: Percent cytochrome P450 19A1 activity remaining after 10 minute pretreatment with 0.5 mM beta-mercaptoethanol
Aromatase [12] = target: T1, Aromatase; test: Percent cytochrome P450 19A1 activity remaining after pretreatment with 0.5 uM androstenedione (t=0 control)
Aromatase [13] = target: T1, Aromatase; test: Percent cytochrome P450 19A1 activity remaining after 10 minute pretreatment with 0.5 uM androstenedione
Aromatase [14] = target: T1, Aromatase; test: Percent cytochrome P450 19A1 activity remaining after pretreatment with 1 uM androstenedione (t=0 control)
Aromatase [15] = target: T1, Aromatase; test: Percent cytochrome P450 19A1 activity remaining after 5 minute pretreatment with 10 mM beta-mercaptoethanol

## C[C@]12CCC(=O)C(SC(F)F)=C1CC[C@@H]1[C@@H]2CC[C@]2(C)C(=O)CC[C@@H]12
Aromatase [1]
  IC50: 2700 nM
[2]
  T1/2: Not time-dependent
[3]
  K inact: Not time-dependent

## C[C@]12CCC(=O)C(SCC#N)=C1CC[C@@H]1[C@@H]2CC[C@]2(C)C(=O)CC[C@@H]12
Aromatase [4]
  IC50: 3700 nM
Aromatase [5]
  Ki: 169 nM
[6]
  K inact: 1.2 10e-3 s-1

## C[C@]12CCC(=O)C(O)=C1CCC1C2=CC[C@]2(C)C(=O)CCC12 (stereo partly specified)
Aromatase [1]
  IC50: 350 nM

## C[C@]12CCC(=O)C(S)=C1CCC1C2CC[C@]2(C)C(=O)CCC12 (stereo partly specified)
Aromatase [4]
  IC50: 3500 nM

## COCOC1=C2CCC3C(CC[C@]4(C)C(=O)CCC34)[C@@]2(C)CCC1=O (stereo partly specified)
Aromatase [1]
  IC50: 4400 nM
[6]
  K inact: Not time-dependent

## COCSC1=C2CCC3C(CC[C@]4(C)C(=O)CCC34)[C@@]2(C)CCC1=O (stereo partly specified)
Aromatase [1]
  IC50: 10000 nM
[6]
  K inact: Not time-dependent

## CSC1=C2CCC3C(CC[C@]4(C)C(=O)CCC34)[C@@]2(C)CCC1=O (stereo partly specified)
Aromatase [1]
  IC50: 4400 nM
[2]
  T1/2: Not time-dependent
[3]
  K inact: Not time-dependent

## CSCSC1=C2CCC3C(CC[C@]4(C)C(=O)CCC34)[C@@]2(C)CCC1=O (stereo partly specified)
Aromatase [1]
  IC50: 1200 nM
[2]
  T1/2: Not time-dependent
[3]
  K inact: Not time-dependent

## C[C@]12CCC(=O)C(SCCl)=C1CCC1C2CC[C@]2(C)C(=O)CCC12 (stereo partly specified)
Aromatase [7]
  Activity: 10.2%
Aromatase [8]
  Activity: 70%
Aromatase [9]
  Activity: 32% and 36.8%
Aromatase [10]
  Ki: 30 nM
Aromatase [11]
  Activity: 59%
Aromatase [12]
  Activity: 49%
Aromatase [1]
  IC50: 940 nM
Aromatase [13]
  Activity: 36.5% and 46%
[6]
  K inact: 3.8 10e-3 s-1
Aromatase [14]
  Activity: 9.8%
Aromatase [15]
  Activity: 5%

## C[C@]12CCC(=O)C(S)=C1CCC1C2=CC[C@]2(C)C(=O)CCC12 (stereo partly specified)
Aromatase [10]
  Ki: 72 nM
Aromatase [1]
  IC50: 3800 nM
[6]
  K inact: 3.9 10e-3 s-1

## C[C@]12CCC(=O)C(SCF)=C1CCC1C2CC[C@]2(C)C(=O)CCC12 (stereo partly specified)
Aromatase [4]
  IC50: 800 nM
Aromatase [5]
  Ki: 30 nM
[6]
  K inact: 3.1 10e-3 s-1

## C[C@]12CCC(=O)C(SCCl)=C1CCC1C2=CC[C@]2(C)C(=O)CCC12 (stereo partly specified)
Aromatase [10]
  Ki: 27 nM
Aromatase [1]
  IC50: 860 nM
[6]
  K inact: 4.8 10e-3 s-1

## C[C@]12CCC(=O)C(O)=C1CC[C@@H]1[C@@H]2CC[C@]2(C)C(=O)CC[C@@H]12 [FORMESTANE]
Aromatase [10]
  Ki: 27 nM
Aromatase [1]
  IC50: 370 nM
[6]
  K inact: 2.3 10e-3 s-1
